Columns and labels:
Assay type in all cases: physicochemical
[1] = Thermal transformation of crystal form (variable-temperature PXRD); conditions: for temperature at which transformation to another polymorph form begins: heating, Form I to Form II, Form III to Form IV
Method: The PXRD analyses are performed using a Rigaku RINT-TTR X-ray powder diffractometer using Cu-Kalpha radiation. The samples can also be measured under the high/low temperature condition by using the attachment of the variant-temperature sample holder. The instrument is equipped with a fine focus X-ray tube. The tube voltage and amperage are set to 50 kV and 300 mA respectively. The divergence and scattering slits are set at 0.5° and the receiving slit is set at 0.15 mm. Diffracted radiation is detected by a NaI scintillation detector. A theta-two theta continuous scan at 4°/min (step size 0.02°) from 3 to 40(°) 2-theta is used. A silicon standard is analyzed to check the machine alignment. Data are collected and analyzed using-Rigaku X-ray system. Samples are prepared for analysis by placing them in an aluminum sample holder that is horizontally rotated at 60 rpm during data acquisition.
4-{[4-({[4-(2,2,2-Trifluoroethoxy)-1,2-benzisoxazol-3-yl]oxy}methyl)piperidin-1-yl]methyl}-tetrahydro-2H-pyran-4-carboxylic acid Polymorph Form I (5 mg) is placed on the temperature-variable sample holder of PXRD, and the temperature of the sample holder is raised to 120° C. and kept for 10 min., then cooled down to room temperature without nitrogen flow to the sample holder to afford Polymorph Form II of 4-{[4-({[4-(2,2,2-trifluoroethoxy)-1,2-benzisoxazol-3-yl]oxy}methyl)piperidin-1-yl]methyl}-tetrahydro-2H-pyran-4-carboxylic acid. Conversion to the Polymorph Form II is confirmed by in situ monitoring of PXRD spectrum.
4-{[4-({[4-(2,2,2-Trifluoroethoxy)-1,2-benzisoxazol-3-yl]oxy}methyl)piperidin-1-yl]methyl}-tetrahydro-2H-pyran-4-carboxylic acid Polymorph Form III begins to transform to Polymorph Form IV at around 90° C. Conversion to the Polymorph Form IV is confirmed by in situ monitoring of PXRD spectrum (variable-temperature PXRD measurement).

[2] = Hygroscopicity study by dynamic vapor sorption (DVS) analysis; conditions: for weight gain %: 25° C.; for weight gain % / water absorbed: DVS; for water absorbed: under 95% RH at 25° C.
Method: Hygroscopicity study is performed using Surface Measurement Systems DVS-1. The sample is placed on a microbalance in the instrument and the weight change during the sorption/desorption cycle at 25° C. is monitored. One of the sorption/desorption programs consists of a sorption scan from 0 to 95% relative humidity (RH) and a desorption scan from 95 to 10% RH. The other consists of a sorption scan from 40 to 95% RH and desorption scan from 95 to 0% RH, followed by a second sorption scan from 0 to 40% RH. Both programs are carried out at 5% RH increments and the sample is allowed to equilibrate for 360 minutes or until equilibration had been attained at each step. At the end of the DVS experiment the sample is measured by PXRD.
In the hygroscopicity study by dynamic vapor sorption (DVS) analysis, both Polymorph Form III and Polymorph Form V absorb less than 1.2 wt % under 95% relative humidity (RH) at 25° C. On the other hand, the white solid disclosed in the prior art WO2006/090224 and Polymorph Form I absorb 15 wt % or 14 wt % of water under 95% RH at 25° C.

[3] = Solid-state stability study (constant temperature/humidity chamber; HPLC, PXRD); conditions: for purity after storage: 40° C./75% RH for 6 months (rounded)
Method: HPLC data are obtained by Waters Alliance 2695 HPLC system with 2996 PDA detector using the following conditions; • Column: Inertsil ODS-3 (3 micrometers, 4.6×150 mm), • Eluent: acetonitrile/10 mM ammonium acetate=32:68, • Detection: UV at 215 nm, • Flow rate: 1 mL/min, and • Column temperature: 40° C.
Solid-state stability study is performed using Nagano Science Constant temperature/humidity control chamber LH-20-11 M, LH-21-11 M, LTL-200D3CJ-14 or LTX-01. […] The crystalline form, thermal behavior, purity and/or weight change of the resultant sample after the exposure or irradiation are evaluated by PXRD, TG/DTA or DSC, HPLC, microbalance, respectively.

[4] = 25° C./60% RH, 40° C./75% RH and/or Xenon lamp
[5] = 40° C./75% RH for 1 month, HPLC
[6] = 40° C./75% RH for 6 months, HPLC
[7] = storage at 40° C./75% RH for 1 month, HPLC
[8] = storage at 40° C./75% RH for 6 months, HPLC

SMILES	temperature at which transformation to another polymorph form begins [1]	weight gain % ([2]; 85% RH) [%]	weight gain % ([2]; 90% RH) [%]	weight gain % ([2]; 95% RH) [%]	water absorbed [2] [wt %]	solid-state stability, comparison in words [3]	change of crystal form on storage ([3]; 25° C./60% RH)	solid-state stability (in words) [3, 4]	Purity (Area %) Main peak [3, 5] [Area %]	purity after storage [3] [%]	Purity (Area %) Main peak [3, 6] [Area %]	time to transformation to Polymorph Form III ([3]; 70° C./75% RH) [days]	Assay Remaining % [3, 7] [%]	Assay Remaining % [3, 8] [%]	hygroscopicity in comparison with the white solid of WO2006/090224 [2]	solid-state stability (in words) ([3]; 70° C./75% RH)	remaining ([3]; 70° C./75% RH, after 3 weeks, HPLC) [%]	temperature up to which the form is stable [1]
O=C(O)C1(CN2CCC(COc3noc4cccc(OCC(F)(F)F)c34)CC2)CCOCC1 [Polymorph Form I, 4-{[4-({[4-(2,2,2-trifluoroethoxy)-1,2-benzisoxazol-3-yl]oxy}methyl)piperidin-1-yl]methyl}-tetrahydro-2H-pyran-4-carboxylic acid]	around 110 °C	0.065	0.089	14	14	more stable than the white solid	gradually transforms to Polymorph Form III	stable	99.4	96	95.6	≤ 1	98	87				
O=C(O)C1(CN2CCC(COc3noc4cccc(OCC(F)(F)F)c34)CC2)CCOCC1 [Polymorph Form II, 4-{[4-({[4-(2,2,2-trifluoroethoxy)-1,2-benzisoxazol-3-yl]oxy}methyl)piperidin-1-yl]methyl}-tetrahydro-2H-pyran-4-carboxylic acid]						more stable than the white solid												
O=C(O)C1(CN2CCC(COc3noc4cccc(OCC(F)(F)F)c34)CC2)CCOCC1 [Polymorph Form III, 4-{[4-({[4-(2,2,2-trifluoroethoxy)-1,2-benzisoxazol-3-yl]oxy}methyl)piperidin-1-yl]methyl}-tetrahydro-2H-pyran-4-carboxylic acid]	around 90 °C	0.48	0.53	0.60		more excellent solid-state stability than Polymorph Form I		stable	99.7	99	99.1		99	97	lower hygroscopicity	chemically and physically stable	100	
O=C(O)C1(CN2CCC(COc3noc4cccc(OCC(F)(F)F)c34)CC2)CCOCC1 [Polymorph Form IV, 4-{[4-({[4-(2,2,2-trifluoroethoxy)-1,2-benzisoxazol-3-yl]oxy}methyl)piperidin-1-yl]methyl}-tetrahydro-2H-pyran-4-carboxylic acid]																		up to 115 °C
O=C(O)C1(CN2CCC(COc3noc4cccc(OCC(F)(F)F)c34)CC2)CCOCC1 [Polymorph Form V, 4-{[4-({[4-(2,2,2-trifluoroethoxy)-1,2-benzisoxazol-3-yl]oxy}methyl)piperidin-1-yl]methyl}-tetrahydro-2H-pyran-4-carboxylic acid]		0.74	0.85	1.1											lower hygroscopicity			
O=C(O)C1(CN2CCC(COc3noc4cccc(OCC(F)(F)F)c34)CC2)CCOCC1 [White solid disclosed in the prior art WO2006/090224] [4-{[4-({[4-(2,2,2-trifluoroethoxy)-1,2-benzisoxazol-3-yl]oxy}methyl)piperidin-1-yl]methyl}-tetrahydro-2H-pyran-4-carboxylic acid, reference compound]		0.99	5.3	15	15													

— patent US10179779B2, “Polymorph forms” (RaQualia Pharma Inc., priority 2012, dated 2019)
